Measured values taken from patent publication US5965699A (priority 1996, dated 1999).
Where “and” joins values, the source holds several entries; their conditions need not be identical. Equal values may be shown once. Read-outs that look alike come from different tables or passages of the source. Where a SMILES comes first, the peptide text is derived from it. [ ]: non-standard residue; d: D form. Nle = CCCC[C@H](N)C(=O)O; Abu = CC[C@H](N)C(=O)O

Target: botox A (Clostridium botulinum, UniProt P0DPI1)
Sequence (P0DPI1 2-448 limits assumed): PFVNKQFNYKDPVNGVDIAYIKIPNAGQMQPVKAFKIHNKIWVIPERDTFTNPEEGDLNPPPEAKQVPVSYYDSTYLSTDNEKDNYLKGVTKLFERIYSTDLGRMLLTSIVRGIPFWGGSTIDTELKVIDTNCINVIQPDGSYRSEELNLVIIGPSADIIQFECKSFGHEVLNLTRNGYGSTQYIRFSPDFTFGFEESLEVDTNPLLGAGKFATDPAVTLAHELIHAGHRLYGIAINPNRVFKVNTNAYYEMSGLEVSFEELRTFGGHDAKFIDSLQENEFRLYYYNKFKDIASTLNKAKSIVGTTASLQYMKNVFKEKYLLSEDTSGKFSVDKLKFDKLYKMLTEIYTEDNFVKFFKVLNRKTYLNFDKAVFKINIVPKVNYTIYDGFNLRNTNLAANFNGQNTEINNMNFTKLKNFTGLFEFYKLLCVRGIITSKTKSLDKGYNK
Assay type: biochemical
Set-up: Rate (initial rate of peptide hydrolysis) / Rate (initial rate of hydrolysis) In AcBSA: unit not given here

Question: CC[C@H](NC(=O)[C@H](CC(=O)O)NC(=O)[C@@H](NC(=O)[C@H](CCCNC(=N)N)NC(=O)[C@@H](NC(=O)[C@H](CCCNC(=N)N)NC(=O)[C@H](CC(N)=O)NC(=O)[C@H](CO)NC(C)=O)[C@@H](C)O)[C@@H](C)CC)C(=O)N[C@@H](C)C(=O)N[C@@H](CC(N)=O)C(=O)N[C@@H](CCC(N)=O)C(=O)N[C@@H](CCCNC(=N)N)C(=O)N[C@@H](C)C(=O)N[C@H](C(=O)N[C@@H](CCCNC(=N)N)C(=O)N[C@@H](CCSC)C(=O)N[C@@H](CC(C)C)C(N)=O)[C@@H](C)O [peptide 5, S N R T R I D B A N Q R A T R M L] (Ac-SNRTRID[Abu]ANQRATRML-NH2) was tested. Which Kcat In AcBSA did it give?
Answer: 70 s⁻¹

Question: And the Kcat In BSA?
Answer: 69 s⁻¹

Question: What about the “Rate (initial rate of hydrolysis) In AcBSA” value of the same molecule?
Answer: 21

Question: What about the “Rate (initial rate of hydrolysis) In BSA” value of the same molecule?
Answer: 13

Question: What about the “Rate (initial rate of peptide hydrolysis)” value of the same molecule?
Answer: 12.9 ± 0.3

Question: What about the “Relative Rate” value of the same molecule?
Answer: 1.7

Question: What about the “specific activity of type A toxin against the peptide” value of the same molecule?
Answer: 21 µmol/min/mg

Question: What about the Km (read-out: Km In AcBSA) of the same molecule?
Answer: 330 µM

Question: What about the Km (read-out: Km In BSA) of the same molecule?
Answer: 740 µM

Question: What does the source list for “Ac-SNKTRIDEANQRASKML-NH2 [T14S, S N K T R I D E A N Q R A S K M L]”?
Answer: Km: 1200 µM; Relative Rate (initial hydrolysis rates relative to peptide [1-17]): 0.26; hydrolysis by botox A, described in words: significantly lower hydrolysis rate; kcat: ~9.0 and 9.0 sec^-1; Km (read-out: Km): ~1200 µM

Question: Which “hydrolysis by botox A, described in words” value (shortened to “hydrolysis … in words”) does the source give for CC[C@H](NC(=O)[C@H](CC(N)=O)NC(=O)[C@H](C)NC(=O)[C@H](CCC(=O)O)NC(=O)[C@H](CC(=O)O)NC(=O)[C@@H](NC(=O)[C@H](CCCNC(=N)N)NC(=O)[C@@H](NC(=O)[C@H](CCCCN)NC(=O)[C@H](CC(N)=O)NC(=O)[C@H](CO)NC(C)=O)[C@@H](C)O)[C@@H](C)CC)C(=O)N[C@@H](CCCNC(=N)N)C(=O)N[C@@H](C)C(=O)N[C@H](C(=O)N[C@@H](CCCCN)C(=O)N[C@@H](CCSC)C(=O)N[C@@H](CC(C)C)C(N)=O)[C@@H](C)O [Q11B, S N K T R I D E A N B R A T K M L] (Ac-SNKTRIDEAN[Abu]RATKML-NH2) here?
Answer: slowed but did not eliminate hydrolysis

Question: What about the kcat (in 1/s) of the same molecule?
Answer: 7.7 ± 0.2

Question: What about the Km (read-out: Km) of the same molecule?
Answer: 830 ± 50 µM

Question: What does the source list for CCCC[C@H](NC(=O)[C@H](CCCCN)NC(=O)[C@@H](NC(=O)[C@H](C)NC(=O)[C@H](CCCNC(=N)N)NC(=O)[C@H](CCC(N)=O)NC(=O)[C@H](CC(N)=O)NC(=O)[C@H](C)NC(=O)[C@H](CCC(=O)O)NC(=O)[C@H](CC(=O)O)NC(=O)[C@@H](NC(=O)[C@H](CCCNC(=N)N)NC(=O)[C@@H](NC(=O)[C@H](CCCCN)NC(=O)[C@H](CC(N)=O)NC(=O)[C@H](CO)NC(C)=O)[C@@H](C)O)[C@@H](C)CC)[C@@H](C)O)C(=O)N[C@@H](CC(C)C)C(N)=O [M16X, S N K T R I D E A N Q R A T K X L] (Ac-SNKTRIDEANQRATK[Nle]L-NH2)?
Answer: hydrolysis by botox A, described in words: hydrolyzed somewhat faster than the native-sequence peptide; kcat (in 1/s): 30 ± 1; Km (read-out: Km): 580 ± 20 µM

Question: How did the “Relative Rate (initial hydrolysis rates relative to peptide [1-17])” value turn out when “Ac-SNKTRIDEANQRATKAL-NH2 [M16A, S N K T R I D E A N Q R A T K A L]” was run?
Answer: .38

Question: What about the “decrease in kcat compared with peptide [1-17]” value of the same molecule?
Answer: ~50%

Question: And the kcat (in 1/s)?
Answer: 25 ± 1

Question: What about the Km (read-out: Km) of the same molecule?
Answer: 1900 ± 100 µM

Question: Which “Relative Rate (initial hydrolysis rates relative to peptide [1-17])” value does the source give for CC[C@H](NC(=O)[C@H](C)NC(=O)[C@H](CCCNC(=N)N)NC(=O)[C@H](CCC(N)=O)NC(=O)[C@H](CC(N)=O)NC(=O)[C@H](C)NC(=O)[C@H](CCC(=O)O)NC(=O)[C@H](CC(=O)O)NC(=O)[C@@H](NC(=O)[C@H](CCCNC(=N)N)NC(=O)[C@@H](NC(=O)[C@H](CCCCN)NC(=O)[C@H](CC(N)=O)NC(=O)[C@H](CO)NC(C)=O)[C@@H](C)O)[C@@H](C)CC)C(=O)N[C@@H](CCCCN)C(=O)N[C@@H](CCSC)C(=O)N[C@@H](CC(C)C)C(N)=O [T14B, S N K T R I D E A N Q R A B K M L] (Ac-SNKTRIDEANQRA[Abu]KML-NH2) here?
Answer: 1.20

Question: What about the “hydrolysis … in words” value of the same molecule?
Answer: good substrate

Question: What about the kcat (in 1/s) of the same molecule?
Answer: 35 ± 2

Question: What about the Km (read-out: Km) of the same molecule?
Answer: 1300 ± 100 µM

Question: For “Ac-SNKTRIDEANQRATKM-NH2 [[1-16], S N K T R I D E A N Q R A T K M]”, which “Relative Rate (initial hydrolysis rates relative to peptide [1-17])” value is on record?
Answer: .17

Question: And the “hydrolysis … in words” value?
Answer: excellent substrate

Question: What about the kcat (in 1/s) of the same molecule?
Answer: 6 ± 4

Question: And the Km (read-out: Km)?
Answer: 1600 ± 100 µM

Question: For “Ac-SNKTRIDQANQRATKML-NH2 [E8Q, S N K T R I D Q A N Q R A T K M L]”, which “Relative Rate (initial hydrolysis rates relative to peptide [1-17])” value is on record?
Answer: 2.08

Question: And the “decrease in Km compared with peptide [1-17]” value?
Answer: about 50%

Question: What about the “hydrolysis … in words” value of the same molecule?
Answer: doubling of the rate of hydrolysis

Question: And the kcat (in 1/s)?
Answer: 51 ± 3

Question: And the Km (read-out: Km)?
Answer: 750 ± 40 µM

Question: For “Ac-SNKTRIDEANARATKML-NH2 [Q11A, S N K T R I D E A N A R A T K M L]”, which “Relative Rate (initial hydrolysis rates relative to peptide [1-17])” value is on record?
Answer: 0.19

Question: What about the “hydrolysis … in words” value of the same molecule?
Answer: slowed but did not eliminate hydrolysis

Question: Which results are given for “Ac-SNKTRINEANQRATKML-NH2 [D7N, S N K T R I N E A N Q R A T K M L]”?
Answer: Relative Rate (initial hydrolysis rates relative to peptide [1-17]): 0.23; kcat as percent of that for peptide [1-17]: about 10%; kcat (in 1/s): 5.0 ± 0.3; Km (read-out: Km): 820 ± 60 µM

Question: How did the “hydrolysis … in words” value turn out when “Ac-SNKTRIDEAQQRATKML-NH2 [N10Q, S N K T R I D E A Q Q R A T K M L]” was run?
Answer: No hydrolysis

Question: Which Kcat In AcBSA does the source give for CC[C@H](NC(=O)[C@H](CCCNC(=N)N)NC(=O)[C@H](CC(N)=O)NC(=O)[C@H](CO)NC(C)=O)C(=O)N[C@@H](CCCNC(=N)N)C(=O)N[C@H](C(=O)N[C@@H](CC(=O)O)C(=O)N[C@@H](CCC(=O)O)C(=O)N[C@@H](C)C(=O)N[C@@H](CC(N)=O)C(=O)N[C@@H](CCC(N)=O)C(=O)N[C@@H](CCCNC(=N)N)C(=O)N[C@@H](C)C(=O)N[C@H](C(=O)N[C@@H](CCCNC(=N)N)C(=O)N[C@@H](CCSC)C(=O)N[C@@H](CC(C)C)C(N)=O)[C@@H](C)O)[C@@H](C)CC [peptide 3, S N R B R I D E A N Q R A T R M L] (Ac-SNR[Abu]RIDEANQRATRML-NH2) here?
Answer: 58 s⁻¹

Question: What about the Kcat In BSA of the same molecule?
Answer: 75 s⁻¹

Question: And the “Rate (initial rate of hydrolysis) In AcBSA” value?
Answer: 18

Question: What about the “Rate (initial rate of hydrolysis) In BSA” value of the same molecule?
Answer: 16

Question: What about the “Rate (initial rate of peptide hydrolysis)” value of the same molecule?
Answer: 15.8 ± 0.8

Question: And the “Relative Rate” value?
Answer: 2.1

Question: And the Km (read-out: Km In AcBSA)?
Answer: 320 µM

Question: And the Km (read-out: Km In BSA)?
Answer: 910 µM

Question: Which results are given for “Ac-SNRTRIDEANQRATRML-NH2 [peptide 2, S N R T R I D E A N Q R A T R M L]”?
Answer: Kcat In AcBSA: 61 s⁻¹; Kcat In BSA: 68 s⁻¹; Rate (initial rate of hydrolysis) In AcBSA: 16; Rate (initial rate of hydrolysis) In BSA: 11; Rate (initial rate of peptide hydrolysis): 11.3 ± 0.5; Relative Rate: 1.5; hydrolysis by botox A, described in words: slightly faster than peptide 1; Km (read-out: Km In AcBSA): 530 µM; Km (read-out: Km In BSA): 1400 µM

Question: Which results are given for CC[C@H](NC(=O)[C@H](CCCNC(=N)N)NC(=O)[C@H](CCC(N)=O)NC(=O)[C@H](CC(N)=O)NC(=O)[C@H](C)NC(=O)[C@H](CCC(=O)O)NC(=O)[C@H](CC(=O)O)NC(=O)[C@@H](NC(=O)[C@H](CCCNC(=N)N)NC(=O)[C@@H](NC(=O)[C@H](CCCCN)NC(=O)[C@H](CC(N)=O)NC(=O)[C@H](CO)NC(C)=O)[C@@H](C)O)[C@@H](C)CC)C(=O)N[C@H](C(=O)N[C@@H](CCCCN)C(=O)N[C@@H](CCSC)C(=O)N[C@@H](CC(C)C)C(N)=O)[C@@H](C)O [A13B, S N K T R I D E A N Q R B T K M L] (Ac-SNKTRIDEANQR[Abu]TKML-NH2)?
Answer: Relative Rate (initial hydrolysis rates relative to peptide [1-17]): .79; kcat (in 1/s): 39 ± 2; Km (read-out: Km): 1800 ± 100 µM

Question: For “Ac-SNRTRIDQANQRATRML-NH2 [compound 4, S N R T R I D Q A N Q R A T R M L]”, which Kcat In AcBSA is on record?
Answer: 68 s⁻¹

Question: What about the Kcat In BSA of the same molecule?
Answer: 64 s⁻¹

Question: What about the “Rate (initial rate of hydrolysis) In AcBSA” value of the same molecule?
Answer: 19

Question: And the “Rate (initial rate of hydrolysis) In BSA” value?
Answer: 13

Question: What about the “Rate (initial rate of peptide hydrolysis)” value of the same molecule?
Answer: 12.6 ± 0.5

Question: What about the “Relative Rate” value of the same molecule?
Answer: 1.7

Question: And the Km (read-out: Km In AcBSA)?
Answer: 470 µM

Question: And the Km (read-out: Km In BSA)?
Answer: 760 µM

Question: For “Ac-SNKTRIDEANQAATKML-NH2 [R12A, S N K T R I D E A N Q A A T K M L]”, which “Relative Rate (initial hydrolysis rates relative to peptide [1-17])” value is on record?
Answer: < 0.02

Question: Which results are given for “Ac-SNKTRIDEANQRATKML-NH2 [[1-17], S N K T R I D E A N Q R A T K M L]”?
Answer: Kcat In AcBSA: 41 s⁻¹; Kcat In BSA: 47 s⁻¹; Rate (initial rate of hydrolysis) In AcBSA: 10; Rate (initial rate of hydrolysis) In BSA: 8; Rate (initial rate of peptide hydrolysis): 7.6 ± 0.3; Relative Rate: 1.0; kcat (in 1/s): 47 ± 2; Km (read-out: Km): 1700 ± 100 µM; Km (read-out: Km In AcBSA): 590 µM
